Measurements published in patent publication US4981860A, “Pyridinium nitrate, composition containing same and their use for inhibiting platelet activating factor” (Takeda Chemical Industries, Ltd., priority 1989, dated 1991).
Like-named read-outs stand apart in the source and are kept apart here.

Columns and labels:
[1] = Stability test in the form of powders (30 days of storage, HPLC content); type: physicochemical; conditions: for remaining at 720 h: 30 days, powder in closed glass bottles, read-out: remaining percentage
Method: The compounds obtained were examined for their stability in the form of powders. […] Procedure: About 100 mg each of the test substance was placed into glass bottles, which were then closed tightly and kept at room temperature (20±2° C.) and at 40° C. (not for the control compound) for 30 days. Determination of the content: An aliquot of the test substance was dissloved in the mobile phase for high performance liquid chromatography [acetonitrile:methanol:0.1% phosphoric acid=900:240:2100] and the content was determined by HPLC.
Conditions of HPLC: column YMC ODS A302 4.6×150 mm

acute renal failure = test: Effect on acute renal failure in rats (renal artery occlusion/reperfusion); type: in vivo, rat (Sprague Dawley (Jcl)); conditions: 30 mg/kg oral, 1 hour prior to occlusion
Method: Method: Male Sprague Dawley (Jcl) rats, 5 weeks old, were anesthetized with sodium pentobarbital (50 mg/kg, i.p.) and the renal artery was occluded bilaterally for 45 minutes followed by reperfusion for 20 hours. The blood was collected from the abdominal aorta under anesthesia for measurement of blood urea nitrogen (BUN).
Results: The concentration of BUN was markedly elevated 20 hours after reperfusion.

[2] = system: endotoxin (ET)-induced death; test: Inhibition of endotoxin (ET)-induced death in rats; type: in vivo, rat (SD)
Method: Method: Male SD rats were used. ET (E. Coli, 0111, B4) (15 mg/kg) was given i.v. 5 min after the injection of the compound (6) obtained in the Production Example 1.

[3] = system: PAF-induced rabbit platelet aggregation; test: Inhibition of PAF-induced rabbit platelet aggregation (platelet rich plasma); type: cell-based; conditions: Oryctolagus cuniculus, read-out: rate of inhibition of PAF-induced rabbit platelet aggregation
Method: Blood was drawn from a male rabbit directly by cardiopuncture with a syringe containing 3.15% citric acid as an anticoagulant (one volume to 9 volumes of blood). By centrifugation at 800 rpm for 10 minutes at room temperature, platelet rich plasma (PRP) was obtained. The residual blood was centrifuged again at 3000 rpm for 10 minutes to give platelet poor plasma (PPP) as the supernatant. PRP was diluted with PPP so that the platelet count might be adjusted to about 500,000 cells/μl. 250 μl of this PRP was stirred at 37° C. for 2 minutes, and the test substance [the compound (6) obtained in Production Example 1] was added. The mixture was stirred again for 2 minutes, followed by the addition of PAF of a certain concentration. Platelet aggregation was measured with a platelet aggregometer (manufactured by Rika Denki Co. in Japan). The aggregation inhibition by the test substance was determined as the percentage of reduction from the maximal transmittance (the maximal aggregation) by PAF in the control PRP.

[4] = system: Reversed passive Arthus reaction; test: Reversed passive Arthus reaction in rat; type: in vivo, rat (Sprague-Dawley); conditions: iv, given intravenously, read-out: ID50 (inhibition of Arthus reaction, area stained blue)
Method: Hair was removed at the back of a male Sprague-Dawley rat (7-week-old, weighing about 250 g) under slight anesthesia with ether and a solution of the test substance [the compound (6) obtained in the Production Example 1] in physiological saline was injected into the caudal vein at the dose of 0.2 ml per 100 g of body weight. Immediately 1 ml of 0.5% antigenic egg albumin solution in physiological saline was injected into the caudal vein. Immediately 0.1 ml of the rabbit anti-egg albumin antiserum (containing 6 mg protein antibody/ml) was given subcutaneously at a site each on the right and the left side of the back. Three hours later, 1 ml of 1% Evans Blue solution in physiological saline was injected intravenously, the skin was removed after 30 minutes, and the area stained blue was measured (in mm^2). The extent of inhibition was calculated by comparing the area with that in the group without treatment with the test substance.

[5] = system: PAF-induced airway constriction; test: Inhibition of PAF in tracheal obstruction (PAF-induced airway constriction); type: in vivo, guinea pig (Hartley); conditions: 0.03 mg/kg i.v., two minutes before PAF (0.3 μg/kg i.v.)
Method: Male and female Hartley guinea pigs weighing about 400 g each were used. The animal was fixed in the supine position under anesthesia with urethane (1.5 g/kg, i.p.), one of the 4 branches of a cannula was inserted into the trachea, and two of the other 3 branches were connected to a respirator (Harvard apparatus rodent respirator). The last branch was connected to a bronchospasm transducer 7020 (Ugobasile). Air was pumped into the lung at the rate of 5 to 7 ml at a time and 70 times per minutes at the loading pressure to the lung of 10 cm H2 O, and the volume of the overflown air was recorded via a transducer on the Rectigraph (Rectigraph-8S, San-ei Sokki). After treatment with gallamine triethodide (1 mg/kg, i.v.), histamine dihydrochloride (10 μg/kg) was intravenously injected, and the responsiveness of the animal was investigated. Thirty seconds after intravenous injection of PAF (0.3 μg/kg), a maximal airway constriction was observed. Under the conditions, the test substance [the compound (6) obtained in the Production Example 1] was examined for its inhibitory action. The test substance was dissolved in physiological saline, and given intravenously two minutes before PAF administration.

[6] = system: death induced by anaphylactic shock; test: Protective effect against death induced by anaphylactic shock in mice; type: in vivo; conditions: Mus musculus, iv, 1 h; i.v. 5 min before rechallenge with BSA (1 mg/kg, i.v.); survival at 60 min; read-out: ED50 (protection from anaphylactic shock)
Method: Method: Male mice were sensitized with bovine serum albumin (BSA) and killed Bordetella pertussis. Two to three weeks later, the mice were rechallenged with BSA (1 mg/kg, i.v.). Survival rate was determined 60 min after the injection of BSA. The compound (6) obtained in the Production Example 1 was given i.v. 5. min. before the rechallenge with BSA.

[7] = system: endotoxin-induced disseminated intravascular coagulation (DIC); test: Inhibition of experimental disseminated intravascular coagulation (DIC) in rats; type: in vivo, rat (SD)
Method: Method: Male SD rats were anesthetized with sodium pentobarbital. Endotoxin (E. Coli, 0111, B4) (ET) was infused into the right femoral vein at a rate of 250 μg/kg/hr for 4 hr. The compound (6) obtained in the Production Example 1 (Test compound) at a dose of 200 μg/kg was given i.v. bolus 5 min. before the infusion of ET and was then infused at a rate of 200 μg/kg/hr for 4 hr.

[8] = system: endotoxin (ET)-induced hypotension; test: Reversal of endotoxin (ET)-induced hypotension in rats; type: in vivo, rat (SD); conditions: Rattus norvegicus, iv; given eight minutes after ET (15 mg/kg)
Method: Method: Male SD rats were anesthetized with sodium pentobarbital, and the right femoral artery and left femoral vein were cannulated for blood pressure measurement and for injection of the compound (6) obtained in the Production Example 1 or ET (E. Coli, 0111, B4), respectively. The compound (6) obtained in the Production Example 1 was given eight minutes after the injection of ET (15 mg/kg).

Acute toxicity in mice = type: in vivo, mouse (Jcl-ICR)
Excerpt: Male J cl-ICR mice (5 animals) (aged 5 weeks) were used.

PAF-induced hypotension = test: Inhibitory action on PAF-induced hypotension in rats; type: in vivo, rat (Sprague-Dawley); conditions: for Inhibition of hypotensive effect: PAF 1 μg/kg i.v.
Method: Male Sprague-Dawley rats weighing about 250 g were used. Cannulas were inserted into the unilateral femoral artery for measurement of blood pressure and into the unilateral femoral vein for administration of the drug solution. Blood pressure was measured via a pressure transducer and recorded on a polygraph. Blood pressure decrease was measured after intravenous (i.v.) injection of PAF at 1 μg/kg, and then the test substance [the compound (6) in Production Example 1] was given intravenously or orally; PAF at 1 μg/kg was given intravenously 5 minutes and 1, 2, 4, 6, and 8 hours after the intravenous injection, and 1, 2, 4, 6 and 8 hours after the oral administration, and the blood pressure decrease was measured.
The inhibitory action on PAF-induced hypotension was expressed in the ratio of decrement of blood pressure due to PAF before the treatment with the test substance (mmHg) to the decrement after the treatment with the test substance (mmHg).

Question: For `CCC[n+]1cc(Br)cc(C(=O)N(CCC(=O)NCCOC(=O)N2CCc3ccccc3C2)c2ccccc2)c1` [Compound (7), 3-Bromo-5-[N-phenyl-N-[2-[[2-(1,2,3,4-tetrahydro-2-isoquinolylcarbonyloxy)ethyl]carbamoyl]ethyl]carbamoyl]-1-propylpyridinium chloride, reference compound], which remaining at 720 h ([1]; at room temperature (20±2° C.)) is on record?
Answer: The remaining at 720 h was 65%.

Question: For `CCC[n+]1cc(Br)cc(C(=O)N(CCC(=O)NCCOC(=O)N2CCc3ccccc3C2)c2ccccc2)c1.O=[N+]([O-])[O-]` [Compound (6), 3-bromo-5-[N-phenyl-N-[2-[[2-(1,2,3,4-tetrahydro-2-isoquinolylcarbonyloxy)ethyl]carbamoyl]ethyl]carbamoyl]-1-propylpyridinium nitrate], which “effect on elevation of BUN (in words)” value (acute renal failure) is on record?
Answer: Its value is “inhibited significantly the elevation of BUN”.

Question: And the “Blood urea nitrogen (BUN)” value (acute renal failure; 20 hours after reperfusion, P<0.05, control 110 ± 4)?
Answer: Its value is 88 ± 2 mg/dL.

Question: And the Survival rate ([2]; 10 μg/kg i.v. 5 min before ET 15 mg/kg i.v., 6 day)?
Answer: Its Survival rate is 30%.

Question: And the Survival rate ([2]; 100 μg/kg i.v. 5 min before ET 15 mg/kg i.v., 22 hr, P<0.05 vs control)?
Answer: The Survival rate was 60%.

Question: And the Survival rate ([2]; 100 μg/kg i.v. 5 min before ET 15 mg/kg i.v., 6 day, P<0.05 vs control)?
Answer: Its Survival rate is 40%.

Question: And the “effect on survival rate of rats (in words)” value ([2]; 100 μg/kg, almost 1 week)?
Answer: Its value is “significantly improved the survival rate”.

Question: What about the inhibition at 3 µM ([3]; 3 × 10^-6 M) of the same molecule?
Answer: Its inhibition at 3 µM is 100%.

Question: What about the inhibition at 0.3 µM ([3]; 3 × 10^-7 M) of the same molecule?
Answer: Its inhibition at 0.3 µM is 100%.

Question: And the inhibition at 0.03 µM ([3]; 3 × 10^-8 M)?
Answer: Its inhibition at 0.03 µM is 71%.

Question: What about the ED50 [4] of the same molecule?
Answer: The ED50 was 1.2 µg/kg.

Question: And the “inhibition of PAF-induced airway constriction” value [5]?
Answer: Its value is 91.3%.

Question: And the ED50 [6]?
Answer: The ED50 was 2.6 µg/kg.

Question: And the Fybrinogen ([7]; 200 μg/kg before ET, then 200 μg/kg/hr for 4 hr, P<0.01 vs control, control 0.3 ± 0.1, normal 2.7 ± 0.1)?
Answer: The Fybrinogen was 1.2 ± 0.3 mg/ml plasma.

Question: What about the FDP ([7]; 200 μg/kg before ET, then 200 μg/kg/hr for 4 hr, P<0.01 vs control, control 16.8 ± 2.3, normal 0.5 ± 0.0) of the same molecule?
Answer: The FDP was 4.6 ± 0.8 μg/ml plasma.

Question: What about the “PT (prothrombin time)” value ([7]; 200 μg/kg before ET, then 200 μg/kg/hr for 4 hr, P<0.01 vs control, control 18.9 ± 1.3, normal 11.2 ± 0.2) of the same molecule?
Answer: The value was 14.0 ± 0.4 s.

Question: And the Platelets ([7]; 200 μg/kg before ET, then 200 μg/kg/hr for 4 hr, P<0.01 vs control, control 23 ± 3, normal 71 ± 3)?
Answer: Its Platelets is 40 ± 4 × 10^4 /μl.

Question: And the “APTT (activated partial thromboplastin time)” value ([7]; 200 μg/kg before ET, then 200 μg/kg/hr for 4 hr, P<0.01 vs control, control 58.3 ± 3.6, normal 35.3 ± 1.3)?
Answer: Its value is 42.8 ± 1.5 s.

Question: And the “effect on changes in DIC parameters (in words)” value ([7]; 200 μg/kg i.v. bolus + 200 μg/kg/hr for 4 hr)?
Answer: The value was “significantly inhibited the changes in these DIC parameters”.

Question: What about the “stability (in words)” value ([1]; general statement, compared with the corresponding chloride) of the same molecule?
Answer: The value was “more stable than the corresponding chloride”.

Question: And the remaining at 720 h ([1]; powder, closed glass bottles, at 40° C.)?
Answer: Its remaining at 720 h is 99.3%.

Question: And the remaining at 720 h ([1]; powder, closed glass bottles, at room temperature (20±2° C.))?
Answer: Its remaining at 720 h is 100%.

Question: And the ED50 [8]?
Answer: The ED50 was 1.2 µg/kg.

Question: What about the “death until one week later (acute toxicity, intravenous)” value (Acute toxicity in mice; 10 mg/kg intravenously, male mice, 5 animals) of the same molecule?
Answer: The value was “no death was observed”.

Question: What about the “death until one week later (acute toxicity, oral)” value (Acute toxicity in mice; 1000 mg/kg orally, male mice, 5 animals) of the same molecule?
Answer: Its value is “no death was observed”.

Question: And the “toxicity (in words)” value (Acute toxicity in mice; general statement)?
Answer: Its value is “low toxicity”.

Question: And the “Inhibition of hypotensive effect” value (PAF-induced hypotension; 0.01 mg/kg i.v., 5 minutes)?
Answer: Its value is 93%.

Question: And the “Inhibition of hypotensive effect” value (PAF-induced hypotension; 0.01 mg/kg i.v., 1 hour)?
Answer: The value was 84%.

Question: What about the “Inhibition of hypotensive effect” value (PAF-induced hypotension; 0.01 mg/kg i.v., 2 hour) of the same molecule?
Answer: The value was 68%.

Question: And the “Inhibition of hypotensive effect” value (PAF-induced hypotension; 0.01 mg/kg i.v., 4 hour)?
Answer: The value was 48%.

Question: What about the “Inhibition of hypotensive effect” value (PAF-induced hypotension; 0.01 mg/kg i.v., 6 hour) of the same molecule?
Answer: Its value is 44%.

Question: And the “Inhibition of hypotensive effect” value (PAF-induced hypotension; 0.01 mg/kg i.v., 8 hour)?
Answer: Its value is 24%.

Question: What about the “Inhibition of hypotensive effect” value (PAF-induced hypotension; 1 mg/kg p.o., 1 hour) of the same molecule?
Answer: The value was 69%.

Question: What about the “Inhibition of hypotensive effect” value (PAF-induced hypotension; 1 mg/kg p.o., 2 hour) of the same molecule?
Answer: The value was 87%.

Question: What about the “Inhibition of hypotensive effect” value (PAF-induced hypotension; 1 mg/kg p.o., 4 hour) of the same molecule?
Answer: Its value is 82%.

Question: And the “Inhibition of hypotensive effect” value (PAF-induced hypotension; 1 mg/kg p.o., 6 hour)?
Answer: Its value is 76%.

Question: And the “Inhibition of hypotensive effect” value (PAF-induced hypotension; 1 mg/kg p.o., 8 hour)?
Answer: The value was 69%.

Question: What about the “PAF-antagonism after oral administration (in words)” value (PAF-induced hypotension; general statement, oral) of the same molecule?
Answer: Its value is “excellent PAF-antagonism even after oral administration”.
